# Key:
# Aqueous solubility = type: physicochemical; conditions: aqueous medium (not further specified)
# Protocol: In some therapeutic applications florfenicol is administered in concentrated organic solution subcutaneously where it is known to form localized depot of the drug which results in the desired sustained release of the drug into the circulation. In such cases solubility of florfenicol in aqueous media represents one of important factors determining the rate of the sustained release. Another important factor affecting the sustained release of florfenicol from the subcutaneous depot site is the concentration of the dosing solution and the solvent composition of the formulation. Apart from the broader range of solvents which can be used for acceptable formulations of florfenicol benzylic carbonate prodrugs these prodrugs also allow a wide range of aqueous solubilities. Solubilities achieved with these prodrugs range from slightly to dramatically lower than that of florfenicol. Reduced aqueous solubilities of such prodrugs may be useful in controlling the rate of dissolution of the prodrug at the subcutaneous depot site and may allow achieving optimized sustained release of the parent drug.
# [1] = Syringeability of dosing solutions (dripping-syringe method); type: physicochemical
# Protocol: Table 4, below, provides evaluations of the syringeability of dosing solutions of selected florfenicol benzylic carbonate prodrugs at concentrations equivalent to 300 mg/ml florfenicol (30% weight/volume).
# High concentrations of fenicol or fenicol drug contained in a fenicol prodrug are often necessary for convenient administration of the necessary amount of the desired amount of the antibiotic. Due to the limited solubility of fenicols in many organic solvents or mixtures of solvents acceptable for injectable formulations the choice of solvents for preparation of highly concentrated florfenicol solutions is limited. As a result highly concentrated solutions of fenicol drugs in organic solvents or solvent mixtures may become highly viscous and difficult to administer by a syringe. Therefore the ability of fenicol benzylic carbonate prodrugs to dissolve in a wider range of organic solvents or mixtures of solvents acceptable for injectable formulations offered the potential to prepare highly concentrated solutions for injections with lower viscosity. […] Test solutions of florfenicol benzylic carbonates containing concentrations of florfenicol (mg/mL) equivalent to the concentration present in Nuflor® formulation were prepared. Syringeabilities of the solutions were evaluated by means of the “dripping syringe” method in which the dripping times (sec) of equal volumes of such solutions under free gravitational flow conditions from a vertically positioned syringe were measured at 15° C. After removing the plunger from a 5 ml polyethylene disposable syringe (5 ml Luer, Norm-Ject Zentrish/Henke Saas Wolf GMBH) and fitting the syringe with a disposable needle (B-D® 16G1 Precision Glide/BentonDickinson & CO) the test solutions were loaded from the top into the syringe and the time necessary for the free flow of 2 mL of solution (between 3 ml and 1 ml marks) was recorded in triplicate. The syringeabilities relative to Nuflor® were calculated by dividing the dripping time for the test solutions (entries 1-12) by the dripping time measured for the commercial sample of Nuflor® formulation (entry 13) As it is evident from the results in Table 4 the syringeabilities of tested solutions containing benzyl alcohol as viscosity diluent had relative syringeabilities <1.00 and were therefore better than Nuflor® (30% weight/volume florfenicol solution in propylene glycol/polyethylene glycol 300/2-methyl pyrolidinone). Due to their better syringeability these solutions represent more favorable formulations for injectable delivery of florfenicol. Solution of the florfenicol benzylic carbonate of the example 2 in triacetin/2-pyrolidinone—1/1 lacking the benzyl alcohol viscosity diluent was the only solution with syringeability poorer that than that of Nuflor® (entry 5).
# [2] = In vitro enzymatic release of parent florfenicol from prodrugs in bovine serum; type: in vitro ADME; conditions: for Florfenicol released from prodrugs (% of total) after treatment with bovine serum: 37° C.; for rates of florfenicol release in serum: bovine serum, among the compounds tested
# Text: The ability of a prodrug derivative of a parent drug molecule to act efficiently in vivo as a source of the free parent drug determines the utility of a particular prodrug for treatment. The prodrug's ability to release the parent drug in vivo, in the presence of endogenous enzymes, can be determined by measuring the systemic levels of the parent drug after administration of the prodrug to the animal. This releasibility can also be assessed in vitro by measuring the release of the parent drug after mixing with animal whole blood, plasma or serum. Selected benzylic carbonate prodrugs of florfenicol were tested for release of florfenicol after in vitro mixing with bovine serum. […] A general trend of more lipophilic carbonates of florfenicol showing higher rates of degradation and release seems to be present among the compounds tested.
# 50 microliter of stock solution of carbonate pro-drug (10 mg/mL in DMSO) was added to 5 mL donor bovine serum and mixed. Aliquots of 400 microliter of the resulting solution were transferred into 1.5 mL plastic centrifuge tubes. Each plastic tube was placed into at 37° C. water bath for incubation. Samples were removed at 0, 1, 2, 4, 8, and 24 hours, and after addition of 400 microliter of acetonitrile to stop the reaction, rapidly stirred for 30 seconds. The precipitate was removed by centrifugation on an Eppendorf 5415G at 14000 rpm for 5 minutes. The clear supernatant solution was sampled for the HPLC analysis. The peak area of florfenicol was used to calculate the conversion of the prodrugs.
# [3] = Solubility in triacetin/benzyl alcohol 2:1 (volume/volume) solvent mixture; type: physicochemical; conditions: 20° C.
# Protocol: Florfenicol parent drug was not soluble in triacetin/benzyl alcohol 2:1 (volume/volume) even at concentrations as low as 10% (weight/volume). […] The combination of prodrug of Example 14 at 275 mg/ml and florfenicol at 100 mg/ml was soluble in triacetin/benzyl alcohol 2:1 (volume/volume) and provided a stable solution with 30% (weight/volume) content of florfenicol (Table 4, supra, entry 12).
# [4] = prodrug concentration equivalent to 300 mg/ml florfenicol, Triacetin/benzyl alcohol - 2:1 (vol/vol), 15° C.
# [5] = prodrug concentration equivalent to 300 mg/ml florfenicol, Triacetin/benzyl alcohol - 2:1 (vol/vol), free flow of 2 mL at 15° C.
# [6] = 300 mg/ml, N-methyl 2-pyrolidinone/propylene glycol/polyethylene glycol 300, 15° C.
# [7] = prodrug concentration equivalent to 300 mg/ml florfenicol, Triacetin/benzyl alcohol/2-pyrolidinone - 2:1:1.5, 15° C.
solubility (Aqueous solubility),melting point,Florfenicol released from prodrugs (% of total) after treatment with bovine serum ([2]; 0 h),Solubility at selected concentration of contained florfenicol ([3]; 10% weight/volume florfenicol),Solubility at selected concentration of contained florfenicol ([3]; 20% weight/volume florfenicol),Solubility at selected concentration of contained florfenicol ([3]; 25% weight/volume florfenicol),Solubility at selected concentration of contained florfenicol ([3]; 30% weight/volume florfenicol),Solubility at selected concentration of contained florfenicol ([3]; 35% weight/volume florfenicol),Solubility at selected concentration of contained florfenicol ([3]; 37% weight/volume florfenicol),Solubility at selected concentration of contained florfenicol ([3]; 40% weight/volume florfenicol),Structure (SMILES),other results
7 µg/mL,156 to 158 °C,–,–,–,–,–,–,–,–,"CC(C)COC(=O)O[C@H](c1ccc(S(C)(=O)=O)cc1)[C@@H](CF)NC(=O)C(Cl)Cl [Example 5, (1R,2S)-2-(2,2-dichloroacetamido)-3-fluoro-1-(4-(methylsulfonyl)phenyl)propyl isobutyl carbonate]",–
550 µg/mL,44 to 54 °C,–,–,–,–,–,–,–,–,CCOC(=O)[C@H](C)OC(=O)O[C@H](c1ccc(S(C)(=O)=O)cc1)[C@@H](CF)NC(=O)C(Cl)Cl [Example 17],–
1530 µg/mL,–,–,not soluble,insoluble,insoluble,insoluble,insoluble,insoluble,insoluble,"CS(=O)(=O)c1ccc([C@@H](O)[C@@H](CF)NC(=O)C(Cl)Cl)cc1 [Florfenicol, D-(threo)-1-(4-methylsulfonylphenyl)-2-dichloroacetamido-3-fluoro-1-propanol, reference compound]","Syringeability measurement: Dripping time [1, 6]: 233 ± 2 s; Syringeability measurement: Relative to NUFLOR [1, 6]: 1.00; Solubility at selected concentration of contained florfenicol ([3]; 10% weight/volume florfenicol, listed as florfenicol): insoluble"
45 µg/mL,110 to 112 °C,BQL,soluble,soluble,soluble,soluble,soluble,soluble,soluble,"CS(=O)(=O)c1ccc([C@@H](OC(=O)OCCOC(=O)O[C@H](c2ccc(S(C)(=O)=O)cc2)[C@@H](CF)NC(=O)C(Cl)Cl)[C@@H](CF)NC(=O)C(Cl)Cl)cc1 [Example 26, Bis((1R,2S)-2-(2,2-dichloroacetamido)-3-fluoro-1-(4-(methylsulfonyl)phenyl)propyl)ethane-1,2-diyl dicarbonate]","Syringeability measurement: Relative to NUFLOR [1, 4]: 0.93; Syringeability measurement: Dripping time [1, 5]: 216 ± 8 s; Florfenicol released from prodrugs (% of total) after treatment with bovine serum ([2]; 1 h): BQL"
120 µg/mL,132 to 134 °C,–,–,–,–,–,–,–,–,"CS(=O)(=O)c1ccc([C@@H](OC(=O)OCC2CC2)[C@@H](CF)NC(=O)C(Cl)Cl)cc1 [Example 6, Cyclopropylmethyl(1R,2S)-2-(2,2-dichloroacetamido)-3-fluoro-1-(4-(methylsulfonyl)phenyl)propyl carbonate]",–
25 µg/mL,120 to 122 °C,BQL,–,–,–,–,–,–,–,"CC(C)CCOC(=O)O[C@H](c1ccc(S(C)(=O)=O)cc1)[C@@H](CF)NC(=O)C(Cl)Cl [Example 8, (1R,2S)-2-(2,2-dichloroacetamido)-3-fluoro-1-(4-(methylsulfonyl)phenyl)propyl isopentyl carbonate]","Syringeability measurement: Dripping time [1, 7]: 157 ± 1 s; Syringeability measurement: Relative to NUFLOR [1, 7]: 0.67; rates of florfenicol release in serum [2]: highest rates"
770 µg/mL,–,–,–,–,–,–,–,–,–,"COCCOC(=O)O[C@H](c1ccc(S(C)(=O)=O)cc1)[C@@H](CF)NC(=O)C(Cl)Cl [Example 11, (1R,2S)-2-(2,2-dichloroacetamido)-3-fluoro-1-(4-(methylsulfonyl)phenyl)propyl 2-methoxyethyl carbonate]",–
32 µg/mL,105 to 106 °C,BQL,soluble,soluble,soluble,soluble,soluble,soluble,insoluble,"CS(=O)(=O)c1ccc([C@@H](OC(=O)OCc2ccccc2)[C@@H](CF)NC(=O)C(Cl)Cl)cc1 [Example 14, Benzyl(1R,2S)-2-(2,2-dichloroacetamido)-3-fluoro-1-(4-(methylsulfonyl)phenyl)propyl carbonate]","Syringeability measurement: Relative to NUFLOR [1, 4]: 0.88; Syringeability measurement: Dripping time [1, 5]: 204 ± 9 s; rates of florfenicol release in serum [2]: highest rates"
100 µg/mL,148 to 150 °C,BQL,–,–,–,–,–,–,–,"CC(C)OC(=O)O[C@H](c1ccc(S(C)(=O)=O)cc1)[C@@H](CF)NC(=O)C(Cl)Cl [Example 4, (1R,2S)-2-(2,2-dichloroacetamido)-3-fluoro-1-(4-(methylsulfonyl)phenyl)propyl isopropyl carbonate]","Syringeability measurement: Dripping time [1, 7]: 164 ± 3 s; Syringeability measurement: Relative to NUFLOR [1, 7]: 0.70; Florfenicol released from prodrugs (% of total) after treatment with bovine serum ([2]; 1 h): BQL; Florfenicol released from prodrugs (% of total) after treatment with bovine serum ([2]; 2 h): BQL"
350 µg/mL,88 to 90 °C,–,–,–,–,–,–,–,–,"CCOCCOC(=O)O[C@H](c1ccc(S(C)(=O)=O)cc1)[C@@H](CF)NC(=O)C(Cl)Cl [Example 12, (1R,2S)-2-(2,2-dichloroacetamido)-3-fluoro-1-(4-(methylsulfonyl)phenyl)propyl 2-ethoxyethyl carbonate]",–

Structure (SMILES),solubility (Aqueous solubility),melting point,Florfenicol released from prodrugs (% of total) after treatment with bovine serum ([2]; 0 h),Solubility at selected concentration of contained florfenicol ([3]; 10% weight/volume florfenicol),Solubility at selected concentration of contained florfenicol ([3]; 20% weight/volume florfenicol),Solubility at selected concentration of contained florfenicol ([3]; 25% weight/volume florfenicol),Solubility at selected concentration of contained florfenicol ([3]; 30% weight/volume florfenicol),Solubility at selected concentration of contained florfenicol ([3]; 35% weight/volume florfenicol),Solubility at selected concentration of contained florfenicol ([3]; 37% weight/volume florfenicol),Solubility at selected concentration of contained florfenicol ([3]; 40% weight/volume florfenicol),other results
"CCCCOCCOC(=O)O[C@H](c1ccc(S(C)(=O)=O)cc1)[C@@H](CF)NC(=O)C(Cl)Cl [Example 13, (1R,2S)-2-(2,2-dichloroacetamido)-3-fluoro-1-(4-(methylsulfonyl)phenyl)propyl 2-butoxyethyl carbonate]",150 µg/mL,–,BQL,soluble,soluble,soluble,soluble,soluble,soluble,soluble,"Syringeability measurement: Relative to NUFLOR [1, 4]: 0.61; Syringeability measurement: Dripping time [1, 5]: 141 ± 5 s; Florfenicol released from prodrugs (% of total) after treatment with bovine serum ([2]; 1 h): BQL"

# Source: US8119667B2, “Carbonates of fenicol antibiotics” (Schering-Plough Animal Health Corporation, priority 2005, dated 2012)
